For one assay, the target named is T1, BRAF V600E (Homo sapiens, UniProt P15056+Q96SW2, V600E).
T1 construct: knock-in of the HiBiT tag to the endogenous BRAF V600E locus; host or cells: A375.10 (A375 clonal line, CRISPR HiBiT knock-in at the endogenous BRAF V600E locus)
Description: BRAF V600E HiBiT Degradation Assay. The class given is cell-based. The protocol: Compounds of this invention were tested for degradation of mutant BRAF V600E using the HiBiT assay, a luminescence-based assay for quantification of cellular protein levels using the Nano-Glo® HiBiT Lytic Detection System (Catalog No. N3050, Promega, Madison, WI USA). This assay utilizes the HiBiT tag on a protein of interest, which creates a luminescent signal in the presence of a complementing peptide and its substrate, the quantification of which is proportional to the amount of HiBiT-tagged protein in the cell.
The cell line A375, which is homozygous for the BRAF V600E mutation, was purchased from ATCC (Catalog No. CRL-1619, Manassas, VA, USA). A375 cells were engineered to express HiBiT tagged BRAF V600E by CRISPR knock-in of the HiBiT tag to the endogenous BRAF V600E locus, followed by selection of a clonal population containing the appropriate knock-in (referred to here as cell line A375.10). A375.10 cells were maintained at 37° C. in an atmosphere of 5% CO2 in Dulbecco's modified Eagle Medium (DMEM) with high glucose (Catalog No. 11965092), supplemented with 10% fetal bovine serum (FBS; Catalog No. 10437036), and 10 mM HEPES (Catalog No. 15630130), all obtained from Thermofisher Scientific (Waltham, MA, USA). Cell culture flasks and 384-well microplates were acquired from VWR (Radnor, PA, USA).
Test compounds were prepared by dissolving neat compounds in DMSO (Catalog No. D8418, Sigma-Aldrich, Inc., St. Louis, MO, USA) to generate 10 mM stock solutions, which were serially diluted (half log) in DMSO to generate an 11-point dose series (1000× final treatment concentration) in a 384-Well Low Dead Volume Microplate (Catalog No. LP-0200, Labcyte, San Jose, CA, USA). Using the Echo 550 Acoustic Liquid Handler (Labcyte), 30 nL of serially diluted compound solutions were dispensed in duplicate to 384-well TC-treated microplates (Catalog No. 3571, Corning, Glendale, CA, USA) and 30 nL of DMSO was dispensed to control wells. A375.10 cells resuspended in growth media without phenol red (Catalog No. 21063-029, Thermofisher Scientific) were then added to 384-well plates containing the 11-point dose series of compounds in duplicate (maximum 10 μM concentration for final treatment) at a density of 12,000 cells/well in 30 μl. Plates were then spun briefly, and cells were incubated with compound at 37° C. for 2 hours, 6 hours, or 24 hours.
Following the appropriate treatment time, Nano-Glo® HiBiT Lytic Assay reagents were added to the cells per the manufacturer's instructions by adding 30 μl of reagent per well, and the luminescence signal was acquired by plate reader. Cells treated with DMSO only (no test compound treatment) were used as the negative control (N). Media only (no cells added) with Nano-Glo reagent addition was used as the background or positive control (P). The percent response of compound treated samples were calculated by subtracting out the background signal (P) and normalizing to the DMSO control (N) as follows.
% Response=100×(Treated Signal−Average (P))/(Average (N)−Average (P)).
Data were analyzed with a 4-parameter logistic fit to generate sigmoidal dose-response curves. The DC50 is the concentration of compound at which 50% of the cellular BRAF V600E has been degraded. The Emax, or maximum effect of each compound, represents the amount of residual protein remaining in the cell following compound treatment. The IP, or inflection point of the dose-response curve, is the concentration of compound at which 50% of the observed degradation response is achieved.
The experiment was conducted at least once for each compound. If the experiment was conducted multiple times, the data shown in the table is the average of the two or more experiments.
Background: With HiBiT, luminescence reflects the tagged protein that the partner subunit can reach.

The next assay has as its system A375-NRAS^Q61K cells. Kind of assay: CTGlo Cell Viability Assay, A375-NRAS^Q61K (A375.11) cells, 96 hours. The following applies: A375.11 (A375-NRAS^Q61K) cells. The class given is cell-based, human. The protocol:
Compounds of this invention were tested for their effect on the viability of A375-NRAS^Q61K cells by quantification of ATP using the CellTiter-Glo® 2.0 Cell Viability Assay (Catalog No. G9243, Promega, Madison, WI, USA). This assay produces a luminescent signal in the presence of ATP, which is indicative of metabolically active cells, making the luminescence readout proportional to the number of viable cells.
A375-NRAS^Q61K cells (harboring BRAF homozygous V600E mutation and NRAS homozygous Q61K mutation) were purchased from ATCC (Catalog No. CRL-1619IG-2, Manassas, VA, USA). A375-NRAS^Q61K cells (also referred to here as A375.11) were maintained at 37° C. in an atmosphere of 5% CO2 in Dulbecco's modified Eagle Medium (DMEM) with high glucose (Catalog No. 11965092), supplemented with 10% fetal bovine serum (FBS; Catalog No. 10437036), and 10 mM HEPES (Catalog No. 15630130), all obtained from Thermofisher Scientific (Waltham, MA, USA). Cell culture flasks and 384-well microplates were acquired from VWR (Radnor, PA, USA).
Test compounds were prepared by dissolving neat compounds in DMSO (Catalog No. D8418, Sigma-Aldrich, Inc., St. Louis, MO, USA) to generate 10 mM stock solutions, which were serially diluted (half log) in DMSO to generate an 11-point dose series (1000× final treatment concentration) in a 384-Well Low Dead Volume Microplate (Catalog No. LP-0200, Labcyte, San Jose, CA, USA). Using the Echo 550 Acoustic Liquid Handler (Labcyte), 50 nL of serially diluted compound solutions were dispensed in duplicate to 384-well TC-treated microplates (Catalog No. 3571, Corning, Glendale, CA, USA) and 50 nL of DMSO was dispensed to control wells. A375-NRAS^Q61K cells were resuspended in growth media and added to 384-well plates containing a […] of compounds in duplicate (maximum 10 μM concentration for final treatment) at a density of 250 cells/well in 50 μl. Cells were also plated to a 384-well plate with no compound treatment, to which CellTiter-Glo® reagent was added and luminescence was read right after plating to act as a baseline signal at time of plating (To). Plates treated with compound were then spun briefly, and cells were incubated with compound at 37° C. for 96 hours.
After 96 hours compound treatment, CellTiter-Glo® reagent was added to the cells at 25 μl per well and luminescence was read out on the PHERAstar plate reader (BMG Labtech, Ortenberg, Germany). Cells treated with DMSO only (no test compound treatment) were used as the negative control (N). DMSO treated cells with no CellTiter-Glo® reagent added were used as the background or positive control (P). Viability was determined by subtracting out the average background signal (P) and normalized to the average untreated signal (N) set at 100%.
Data were analyzed with a 4-parameter logistic fit to generate sigmoidal dose-response curves. The half-maximal inhibition of cell growth (GI50) is the concentration at which the fitted curve crosses 50%. The Emax, or maximum effect of each compound, represents the lowest % viability achieved following compound treatment.

The mark [1] stands for this setting: A375.10 cells, BRAF V600E, 2 hours, inflection point, read-out: HiBiT-Degradation A375.10 BRAF 2 hours IP.
Setting [2] is: A375.10 cells, BRAF V600E, 2 hours, read-out: HiBiT-Degradation A375.10 BRAF 2 hours DC50.
[3] abbreviates: read-out: HiBiT-Degradation A375.10 BRAF 2 hours Emax, A375.10 cells, BRAF V600E, 2 hours, residual protein remaining.
Setting [4] is: Homo sapiens, 96 h, lowest % viability achieved.
Where [5] appears, read: A375.10 cells, BRAF V600E, 2 hours, residual protein remaining, read-out: HiBiT-Degradation A375.10 BRAF 2 hours Emax.

Each structure is given as a SMILES string. Like-named read-outs stand apart in the source and are kept apart here.

These results are taken from US20260297060A1, “COMPOUNDS FOR THE DEGRADATION OF MUTANT BRAF” (C4 THERAPEUTICS, INC., priority 2023, published 2026).

A word on the GI50: it is the concentration that inhibits growth by half. Low readings indicate greater sensitivity of the cells, high ones lower sensitivity of the cells.

T1 sequence (P15056 whole entry V600E): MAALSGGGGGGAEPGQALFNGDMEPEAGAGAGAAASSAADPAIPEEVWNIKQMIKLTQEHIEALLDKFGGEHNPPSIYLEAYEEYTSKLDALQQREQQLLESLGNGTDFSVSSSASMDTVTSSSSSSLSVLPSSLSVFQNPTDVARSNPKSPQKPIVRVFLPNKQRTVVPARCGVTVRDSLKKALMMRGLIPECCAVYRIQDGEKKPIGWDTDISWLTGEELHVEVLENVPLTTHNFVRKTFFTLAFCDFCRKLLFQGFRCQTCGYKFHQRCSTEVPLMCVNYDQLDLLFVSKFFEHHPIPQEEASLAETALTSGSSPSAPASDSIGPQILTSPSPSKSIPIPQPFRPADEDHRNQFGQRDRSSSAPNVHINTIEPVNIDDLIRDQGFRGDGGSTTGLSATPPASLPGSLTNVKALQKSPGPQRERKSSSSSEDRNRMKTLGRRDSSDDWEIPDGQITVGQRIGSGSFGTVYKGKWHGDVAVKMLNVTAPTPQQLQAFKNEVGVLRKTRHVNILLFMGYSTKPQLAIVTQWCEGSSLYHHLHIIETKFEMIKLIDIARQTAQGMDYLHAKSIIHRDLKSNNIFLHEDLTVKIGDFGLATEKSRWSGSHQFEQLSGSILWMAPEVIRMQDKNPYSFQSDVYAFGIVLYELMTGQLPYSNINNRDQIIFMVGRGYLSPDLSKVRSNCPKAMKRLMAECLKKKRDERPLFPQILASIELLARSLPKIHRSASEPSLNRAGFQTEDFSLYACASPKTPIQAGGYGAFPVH
T1 sequence (Q96SW2 whole entry): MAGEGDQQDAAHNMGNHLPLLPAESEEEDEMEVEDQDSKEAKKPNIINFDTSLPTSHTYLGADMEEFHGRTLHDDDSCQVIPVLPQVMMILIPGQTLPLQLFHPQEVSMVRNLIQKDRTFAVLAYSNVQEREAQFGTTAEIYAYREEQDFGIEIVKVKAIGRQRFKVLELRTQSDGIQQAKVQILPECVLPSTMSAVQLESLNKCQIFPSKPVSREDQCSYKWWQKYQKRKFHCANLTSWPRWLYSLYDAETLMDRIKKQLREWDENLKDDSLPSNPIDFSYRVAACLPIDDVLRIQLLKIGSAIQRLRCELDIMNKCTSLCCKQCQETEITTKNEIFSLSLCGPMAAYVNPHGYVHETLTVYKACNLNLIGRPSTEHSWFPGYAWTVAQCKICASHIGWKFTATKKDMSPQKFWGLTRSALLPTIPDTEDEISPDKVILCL
T1 sequence (Q16531 whole entry partner): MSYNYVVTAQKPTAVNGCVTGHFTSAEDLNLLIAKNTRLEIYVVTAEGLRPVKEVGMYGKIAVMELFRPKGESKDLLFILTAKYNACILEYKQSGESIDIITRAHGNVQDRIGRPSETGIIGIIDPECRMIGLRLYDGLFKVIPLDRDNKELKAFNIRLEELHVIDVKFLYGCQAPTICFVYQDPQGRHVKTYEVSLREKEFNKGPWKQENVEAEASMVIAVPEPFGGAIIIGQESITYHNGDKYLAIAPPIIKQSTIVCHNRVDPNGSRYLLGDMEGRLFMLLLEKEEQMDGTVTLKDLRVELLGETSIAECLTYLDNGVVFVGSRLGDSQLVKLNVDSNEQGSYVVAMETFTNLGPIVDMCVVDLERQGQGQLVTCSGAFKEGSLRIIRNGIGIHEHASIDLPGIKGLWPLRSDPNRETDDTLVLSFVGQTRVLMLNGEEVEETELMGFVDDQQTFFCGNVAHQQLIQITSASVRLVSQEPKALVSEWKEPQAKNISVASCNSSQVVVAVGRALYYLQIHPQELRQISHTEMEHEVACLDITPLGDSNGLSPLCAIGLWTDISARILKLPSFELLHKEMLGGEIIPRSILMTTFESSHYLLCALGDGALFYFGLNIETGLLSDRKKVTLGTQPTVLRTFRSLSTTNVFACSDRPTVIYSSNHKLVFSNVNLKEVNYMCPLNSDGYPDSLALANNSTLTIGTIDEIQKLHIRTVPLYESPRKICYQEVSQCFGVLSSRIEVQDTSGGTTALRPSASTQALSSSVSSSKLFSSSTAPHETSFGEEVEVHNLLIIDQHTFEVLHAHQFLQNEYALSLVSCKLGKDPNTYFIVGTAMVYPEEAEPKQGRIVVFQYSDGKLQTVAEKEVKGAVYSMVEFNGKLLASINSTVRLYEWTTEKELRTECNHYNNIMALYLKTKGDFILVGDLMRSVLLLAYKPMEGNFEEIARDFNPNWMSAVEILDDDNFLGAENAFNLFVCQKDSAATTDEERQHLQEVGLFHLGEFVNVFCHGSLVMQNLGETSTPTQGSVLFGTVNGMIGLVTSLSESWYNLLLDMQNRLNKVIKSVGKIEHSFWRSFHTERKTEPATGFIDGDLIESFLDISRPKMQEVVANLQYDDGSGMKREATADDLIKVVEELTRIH

As for `CCN(C)S(=O)(=O)Nc1ccc(F)c(C(=O)c2ccc3ncn(C4CC5(CCN(C6CCC(c7ccc(NC8CCC(=O)NC8=O)cc7F)CC6)CC5)C4)c(=O)c3c2)c1F` (single isomer, unassigned) [Compound 200, 3-[7-[4-[4-[(2,6-dioxo-3-piperidyl)amino]-2-fluoro-phenyl]cyclohexyl]-7-azaspiro[3.5]nonan-2-yl]-6-[3-[[ethyl(methyl)sulfamoyl]amino]-2,6-difluoro-benzoyl]-4-oxo-quinazoline], the DC50 at BRAF V600E (setting [1]) and on BRAF V600E (setting [2]) was less than 1000 nM in each case. Further, on BRAF V600E (A375.10 cells, BRAF V600E, 2 hours, residual protein remaining), the “HiBiT-Degradation A375.10 BRAF 2 hours Emax” value was “*** (<=50%)”. Moreover, the GI50 in the assay with A375-NRAS^Q61K cells fell in the range of 1000 to 10000 nM. Besides, the “CTGlo A375.11 96 hours Emax” value in the assay on A375-NRAS^Q61K cells (lowest % viability achieved) was “** (<90% and >50%)”.
On to `CCN(C)S(=O)(=O)Nc1ccc(F)c(Oc2ccc3ncn([C@H]4COC5(CCC(N6CC7(CN(c8ccc(NC9CCC(=O)NC9=O)cc8F)C7)C6)CC5)C4)c(=O)c3c2)c1C#N` (single isomer, unassigned) [Compound 191], for which the DC50 on BRAF V600E (setting [1]) and at BRAF V600E (setting [2]) was less than 1000 nM throughout. The Emax at BRAF V600E (setting [3]) and in the assay on A375-NRAS^Q61K cells (setting [4]) was less than 50% in each case. Also, in the assay with A375-NRAS^Q61K cells, the GI50 is less than 1000 nM.
As to `CO[C@H]1CCN(S(=O)(=O)Nc2ccc(F)c(Oc3ccc4ncn([C@H]5COC6(CCN(C7CCC(c8ccc(NC9CCC(=O)NC9=O)cc8F)CC7)CC6)C5)c(=O)c4c3)c2C#N)C1` (single isomer, unassigned) [Compound 140], the DC50 at BRAF V600E (setting [1]) and on BRAF V600E (setting [2]) was less than 1000 nM each time. Also, the Emax on BRAF V600E (setting [5]) and in the assay with A375-NRAS^Q61K cells (setting [4]) was less than 50% each time. In addition, in the assay on A375-NRAS^Q61K cells (Homo sapiens, 96 h), the GI50 is less than 1000 nM.
As to `CCN(C)S(=O)(=O)Nc1ccc(F)c(Oc2ccc3ncnc(OC4CC5(C4)CN(C4CCC(c6cc7c(cc6F)c(N6CCC(=O)NC6=O)nn7C)CC4)C5)c3c2)c1C#N` (single isomer, unassigned) [Compound 232, 6-[2-cyano-3-[[ethyl(methyl)sulfamoyl]amino]-6-fluoro-phenoxy]-4-[[2-[4-[3-(2,4-dioxohexahydropyrimidin-1-yl)-5-fluoro-1-methyl-indazol-6-yl]cyclohexyl]-2-azaspiro[3.3]heptan-6-yl]oxy]quinazoline], the DC50 on BRAF V600E (setting [1]) and on BRAF V600E (setting [2]) was less than 1000 nM in each case. The Emax at BRAF V600E (setting [3]) and with A375-NRAS^Q61K cells (setting [4]) was 50 to 90% each time. The GI50 in the assay with A375-NRAS^Q61K cells (Homo sapiens, 96 h) is more than 10000 nM.
With `CCN(C)S(=O)(=O)Nc1ccc(F)c(Oc2ccc3ncc(OCC4CCN(C5CCC(c6ccc(NC7CCC(=O)NC7=O)cc6F)CC5)CC4)nc3c2)c1C#N` (single isomer, unassigned) [Compound 116, 7-[2-cyano-3-[[ethyl(methyl)sulfamoyl]amino]-6-fluoro-phenoxy]-2-[[1-[4-[4-[(2,6-dioxo-3-piperidyl)amino]-2-fluoro-phenyl]cyclohexyl]-4-piperidyl]methoxy]quinoxaline], the DC50 on BRAF V600E (setting [1]) is less than 1000 nM; at BRAF V600E (setting [2]), 1000 to 10000 nM. Moreover, the Emax at BRAF V600E (setting [5]) and with A375-NRAS^Q61K cells (setting [4]) was 50 to 90% in each case. In addition, the GI50 in the assay with A375-NRAS^Q61K cells was more than 10000 nM.
Regarding `CO[C@H]1CCN(S(=O)(=O)Nc2ccc(F)c(Oc3ccc4ncc(C5CC6(CCN(C7CCC(c8cc9c(cc8F)c(N8CCC(=O)NC8=O)nn9C)CC7)CC6)C5)nc4c3)c2C#N)C1` (single isomer, unassigned) [Compound 275], the “HiBiT-Degradation A375.10 BRAF 2 hours IP” value on BRAF V600E (A375.10 cells, BRAF V600E, 2 hours, inflection point) was “*** (<=1 μM)”. Besides, the Emax on BRAF V600E (setting [5]) and with A375-NRAS^Q61K cells (setting [4]) was 50 to 90% throughout. Further, the DC50 on BRAF V600E (read-out: HiBiT-Degradation A375.10 BRAF 2 hours DC50, A375.10 cells, BRAF V600E, 2 hours) is less than 1000 nM. This molecule also displayed a GI50 in the assay on A375-NRAS^Q61K cells of more than 10000 nM.
Consider `CCN(C)S(=O)(=O)Nc1ccc(F)c(Nc2ccc3ncn([C@@H]4COC5(CCN(C6CCC(c7cc8c(cc7F)c(N7CCC(=O)NC7=O)nn8C)CC6)CC5)C4)c(=O)c3c2F)c1C#N` (single isomer, unassigned) [Compound 68], for which the DC50 at BRAF V600E (setting [1]) and at BRAF V600E (setting [2]) was less than 1000 nM throughout. The Emax at BRAF V600E (setting [5]) and in the assay with A375-NRAS^Q61K cells (setting [4]) was less than 50% in each case. In the assay on A375-NRAS^Q61K cells, this molecule yielded a GI50 of more than 10000 nM.
In the case of `CCN(C)S(=O)(=O)Nc1ccc(F)c(Nc2ccc3ncn([C@H]4COC5(CCN(C6CCC(c7ccc(NC8CCC(=O)NC8=O)cc7F)CC6)CC5)C4)c(=O)c3c2)c1C#N` (single isomer, unassigned) [Compound 56], the DC50 at BRAF V600E (setting [1]) and at BRAF V600E (setting [2]) was less than 1000 nM each time. The figures for the Emax at BRAF V600E (setting [5]) and in the assay with A375-NRAS^Q61K cells (setting [4]) were less than 50% and 50 to 90%, respectively. This molecule yielded a GI50 with A375-NRAS^Q61K cells of more than 10000 nM.
